The source made the active and inactive calls. No cut-off for these calls is given here.

The text below walks through data of ChEMBL document CHEMBL4602647, “Protective effects of 10,11-dihydro-5H-dibenzo[b,f]azepine hydroxamates on vascular cognitive impairment” (Eur J Med Chem, 2020).

For series [1], the target named is Histone deacetylase 3/Nuclear receptor corepressor 2 (HDAC3/NCoR2) (Homo sapiens, UniProt O15379). Nature of the series: biochemical. Type of series: cell-based.
Series [2] is described as follows: AUC (0 to infinity) in Sprague-Dawley rat at 2 mg/kg, iv measured up to 24 hrs. It is filed as ADME, organism-based. Further details: dose 2 mg/kg, time infinity, route intravenous. The note with it: in vivo.
The target in another series is Histone deacetylase 9 (Homo sapiens, UniProt Q9UKV0). Nature of the series: Inhibition of human HDAC9 using fluorogenic Boc-Lys(trifluoroacetyl)-AMC as substrate by fluorescence based analysis.
Another series has as its target T1, Histone deacetylase 7 (Homo sapiens, UniProt Q8WUI4).
T1 sequence (Q8WUI4 whole entry): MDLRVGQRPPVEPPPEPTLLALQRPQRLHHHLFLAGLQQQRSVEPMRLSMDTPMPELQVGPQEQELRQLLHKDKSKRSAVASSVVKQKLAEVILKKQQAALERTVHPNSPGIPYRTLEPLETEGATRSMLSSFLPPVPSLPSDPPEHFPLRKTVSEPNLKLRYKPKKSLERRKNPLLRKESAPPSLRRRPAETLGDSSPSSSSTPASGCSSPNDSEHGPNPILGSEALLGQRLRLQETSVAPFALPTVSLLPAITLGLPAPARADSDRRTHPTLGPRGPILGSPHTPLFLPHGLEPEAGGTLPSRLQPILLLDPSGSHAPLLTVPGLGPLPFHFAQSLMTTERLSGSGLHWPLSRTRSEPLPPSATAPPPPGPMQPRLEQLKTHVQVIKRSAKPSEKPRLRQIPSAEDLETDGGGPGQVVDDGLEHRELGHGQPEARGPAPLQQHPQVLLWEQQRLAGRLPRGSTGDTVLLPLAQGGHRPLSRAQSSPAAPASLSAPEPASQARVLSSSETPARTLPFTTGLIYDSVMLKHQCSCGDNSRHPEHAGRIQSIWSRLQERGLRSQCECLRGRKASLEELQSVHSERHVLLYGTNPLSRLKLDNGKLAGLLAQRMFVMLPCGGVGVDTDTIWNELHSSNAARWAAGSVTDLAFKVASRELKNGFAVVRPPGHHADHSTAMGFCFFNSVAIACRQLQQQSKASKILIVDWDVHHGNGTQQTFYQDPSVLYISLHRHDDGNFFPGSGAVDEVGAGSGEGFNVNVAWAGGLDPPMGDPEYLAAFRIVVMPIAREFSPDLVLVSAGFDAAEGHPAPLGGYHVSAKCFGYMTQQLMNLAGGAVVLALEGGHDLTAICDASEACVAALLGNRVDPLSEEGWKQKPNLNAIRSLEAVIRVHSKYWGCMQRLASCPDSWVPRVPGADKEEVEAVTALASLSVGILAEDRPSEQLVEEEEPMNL
Nature of the series: Inhibition of recombinant human N-terminal GST-tagged HDAC7 (518 to 991 residues) expressed in baculovirus infected insect cells using Boc-K(Ac)-AMC as substrate after 90 mins by fluorimetry analysis.

Series [3] addresses T2, Protein deacetylase HDAC6 (Homo sapiens, UniProt Q9UBN7).
T2 sequence (Q9UBN7 whole entry): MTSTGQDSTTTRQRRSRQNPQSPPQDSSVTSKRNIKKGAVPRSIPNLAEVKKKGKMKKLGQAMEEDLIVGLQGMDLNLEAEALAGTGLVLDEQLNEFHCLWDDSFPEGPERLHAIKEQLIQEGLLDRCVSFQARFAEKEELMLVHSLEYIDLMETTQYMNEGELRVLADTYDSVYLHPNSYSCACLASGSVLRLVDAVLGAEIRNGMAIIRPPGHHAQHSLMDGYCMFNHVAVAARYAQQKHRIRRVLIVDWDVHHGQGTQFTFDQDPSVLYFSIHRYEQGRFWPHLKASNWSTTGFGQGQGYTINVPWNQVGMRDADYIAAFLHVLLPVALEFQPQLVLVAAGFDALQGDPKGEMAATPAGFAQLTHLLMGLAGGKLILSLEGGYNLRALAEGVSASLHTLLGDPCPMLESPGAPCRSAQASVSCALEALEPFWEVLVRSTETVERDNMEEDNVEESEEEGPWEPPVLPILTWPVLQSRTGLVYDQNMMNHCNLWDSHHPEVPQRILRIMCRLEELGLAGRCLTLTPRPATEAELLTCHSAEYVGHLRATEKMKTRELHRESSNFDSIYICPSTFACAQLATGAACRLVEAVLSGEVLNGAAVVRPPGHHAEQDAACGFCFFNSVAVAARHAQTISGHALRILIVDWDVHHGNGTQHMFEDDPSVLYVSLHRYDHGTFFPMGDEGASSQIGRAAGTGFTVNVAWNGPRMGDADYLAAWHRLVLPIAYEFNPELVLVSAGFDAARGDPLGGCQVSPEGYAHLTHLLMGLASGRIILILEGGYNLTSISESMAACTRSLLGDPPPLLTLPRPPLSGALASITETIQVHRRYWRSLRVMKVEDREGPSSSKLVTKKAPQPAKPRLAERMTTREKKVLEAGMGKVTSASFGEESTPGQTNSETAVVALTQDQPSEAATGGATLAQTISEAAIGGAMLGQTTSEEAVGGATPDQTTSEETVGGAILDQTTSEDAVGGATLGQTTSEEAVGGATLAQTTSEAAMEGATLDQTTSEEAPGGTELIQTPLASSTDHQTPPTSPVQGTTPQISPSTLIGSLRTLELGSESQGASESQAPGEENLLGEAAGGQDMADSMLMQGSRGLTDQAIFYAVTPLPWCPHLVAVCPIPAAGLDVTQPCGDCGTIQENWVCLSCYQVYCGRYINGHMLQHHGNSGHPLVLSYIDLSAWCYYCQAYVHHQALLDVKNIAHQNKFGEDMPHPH
The experiment in a line: Inhibition of recombinant human N-terminal GST-tagged HDAC6 (1 to 1215 residues) expressed in baculovirus infected insect cells using RHK-K(Ac)-AMC as substrate after 90 mins by fluorimetry analysis.

The nature of series [4]: AUC (0 to infinity) in Sprague-Dawley rat at 10 mg/kg, po measured up to 24 hrs. It is filed as ADME, organism-based. Set-up: dose 10 mg/kg, time infinity, route oral. The note with it: in vivo.
A short description of series [5]: Oral bioavailability in Sprague-Dawley rat at 10 mg/kg measured up to 24 hrs. It is filed as ADME, organism-based. The note with it: in vivo.
The test system of a further series is SH-SY5Y. The experiment in a line: Neuroprotective activity against OGD-induced hypoxic injury in human SH-SY5Y cells assessed as LDH release at 5 uM incubated under oxygen/glucose deprivation-induced hypoxic medium by LDH assay (reference value: 27.47 +/- 3.23 %). Type of series: functional.
The test system of series [6] is Mus musculus. The experiment in a line: Anti-vascular cognitive impairment activity against bilateral common carotid artery occlusion-induced vascular dementia C57BL/6J mouse model assessed as ratio of cerebral blood flow in left parietal area at 25 mg/kg, ip administered post surgery measured after 3 months(reference value: 0.792 +/- 0.029). It is filed as functional.

The subject of series [7] is Mus musculus. The experiment in a line: Upregulation of acetylated H4K5 protein expression in hippocampus of bilateral common carotid artery occlusion-induced vascular dementia C57BL/6J mouse model at 25 mg/kg, ip measured after 3 months by Western blot analysis. It is filed as functional, organism-based.

Histone deacetylase 3/Nuclear receptor corepressor 2 (HDAC3/NCoR2), sequence (O15379 whole entry): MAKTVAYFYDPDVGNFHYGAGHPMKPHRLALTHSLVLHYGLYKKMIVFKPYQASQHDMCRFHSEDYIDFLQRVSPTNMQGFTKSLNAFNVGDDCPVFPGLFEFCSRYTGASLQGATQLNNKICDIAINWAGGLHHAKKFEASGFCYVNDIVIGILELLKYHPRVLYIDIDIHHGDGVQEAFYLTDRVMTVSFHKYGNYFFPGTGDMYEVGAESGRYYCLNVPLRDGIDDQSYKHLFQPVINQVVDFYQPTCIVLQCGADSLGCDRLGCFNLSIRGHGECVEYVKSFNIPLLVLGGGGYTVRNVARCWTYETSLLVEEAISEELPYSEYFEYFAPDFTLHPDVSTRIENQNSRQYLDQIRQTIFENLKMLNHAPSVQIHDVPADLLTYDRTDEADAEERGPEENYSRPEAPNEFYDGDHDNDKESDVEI
Histone deacetylase 3/Nuclear receptor corepressor 2 (HDAC3/NCoR2), sequence (Q9Y618 whole entry, further chain): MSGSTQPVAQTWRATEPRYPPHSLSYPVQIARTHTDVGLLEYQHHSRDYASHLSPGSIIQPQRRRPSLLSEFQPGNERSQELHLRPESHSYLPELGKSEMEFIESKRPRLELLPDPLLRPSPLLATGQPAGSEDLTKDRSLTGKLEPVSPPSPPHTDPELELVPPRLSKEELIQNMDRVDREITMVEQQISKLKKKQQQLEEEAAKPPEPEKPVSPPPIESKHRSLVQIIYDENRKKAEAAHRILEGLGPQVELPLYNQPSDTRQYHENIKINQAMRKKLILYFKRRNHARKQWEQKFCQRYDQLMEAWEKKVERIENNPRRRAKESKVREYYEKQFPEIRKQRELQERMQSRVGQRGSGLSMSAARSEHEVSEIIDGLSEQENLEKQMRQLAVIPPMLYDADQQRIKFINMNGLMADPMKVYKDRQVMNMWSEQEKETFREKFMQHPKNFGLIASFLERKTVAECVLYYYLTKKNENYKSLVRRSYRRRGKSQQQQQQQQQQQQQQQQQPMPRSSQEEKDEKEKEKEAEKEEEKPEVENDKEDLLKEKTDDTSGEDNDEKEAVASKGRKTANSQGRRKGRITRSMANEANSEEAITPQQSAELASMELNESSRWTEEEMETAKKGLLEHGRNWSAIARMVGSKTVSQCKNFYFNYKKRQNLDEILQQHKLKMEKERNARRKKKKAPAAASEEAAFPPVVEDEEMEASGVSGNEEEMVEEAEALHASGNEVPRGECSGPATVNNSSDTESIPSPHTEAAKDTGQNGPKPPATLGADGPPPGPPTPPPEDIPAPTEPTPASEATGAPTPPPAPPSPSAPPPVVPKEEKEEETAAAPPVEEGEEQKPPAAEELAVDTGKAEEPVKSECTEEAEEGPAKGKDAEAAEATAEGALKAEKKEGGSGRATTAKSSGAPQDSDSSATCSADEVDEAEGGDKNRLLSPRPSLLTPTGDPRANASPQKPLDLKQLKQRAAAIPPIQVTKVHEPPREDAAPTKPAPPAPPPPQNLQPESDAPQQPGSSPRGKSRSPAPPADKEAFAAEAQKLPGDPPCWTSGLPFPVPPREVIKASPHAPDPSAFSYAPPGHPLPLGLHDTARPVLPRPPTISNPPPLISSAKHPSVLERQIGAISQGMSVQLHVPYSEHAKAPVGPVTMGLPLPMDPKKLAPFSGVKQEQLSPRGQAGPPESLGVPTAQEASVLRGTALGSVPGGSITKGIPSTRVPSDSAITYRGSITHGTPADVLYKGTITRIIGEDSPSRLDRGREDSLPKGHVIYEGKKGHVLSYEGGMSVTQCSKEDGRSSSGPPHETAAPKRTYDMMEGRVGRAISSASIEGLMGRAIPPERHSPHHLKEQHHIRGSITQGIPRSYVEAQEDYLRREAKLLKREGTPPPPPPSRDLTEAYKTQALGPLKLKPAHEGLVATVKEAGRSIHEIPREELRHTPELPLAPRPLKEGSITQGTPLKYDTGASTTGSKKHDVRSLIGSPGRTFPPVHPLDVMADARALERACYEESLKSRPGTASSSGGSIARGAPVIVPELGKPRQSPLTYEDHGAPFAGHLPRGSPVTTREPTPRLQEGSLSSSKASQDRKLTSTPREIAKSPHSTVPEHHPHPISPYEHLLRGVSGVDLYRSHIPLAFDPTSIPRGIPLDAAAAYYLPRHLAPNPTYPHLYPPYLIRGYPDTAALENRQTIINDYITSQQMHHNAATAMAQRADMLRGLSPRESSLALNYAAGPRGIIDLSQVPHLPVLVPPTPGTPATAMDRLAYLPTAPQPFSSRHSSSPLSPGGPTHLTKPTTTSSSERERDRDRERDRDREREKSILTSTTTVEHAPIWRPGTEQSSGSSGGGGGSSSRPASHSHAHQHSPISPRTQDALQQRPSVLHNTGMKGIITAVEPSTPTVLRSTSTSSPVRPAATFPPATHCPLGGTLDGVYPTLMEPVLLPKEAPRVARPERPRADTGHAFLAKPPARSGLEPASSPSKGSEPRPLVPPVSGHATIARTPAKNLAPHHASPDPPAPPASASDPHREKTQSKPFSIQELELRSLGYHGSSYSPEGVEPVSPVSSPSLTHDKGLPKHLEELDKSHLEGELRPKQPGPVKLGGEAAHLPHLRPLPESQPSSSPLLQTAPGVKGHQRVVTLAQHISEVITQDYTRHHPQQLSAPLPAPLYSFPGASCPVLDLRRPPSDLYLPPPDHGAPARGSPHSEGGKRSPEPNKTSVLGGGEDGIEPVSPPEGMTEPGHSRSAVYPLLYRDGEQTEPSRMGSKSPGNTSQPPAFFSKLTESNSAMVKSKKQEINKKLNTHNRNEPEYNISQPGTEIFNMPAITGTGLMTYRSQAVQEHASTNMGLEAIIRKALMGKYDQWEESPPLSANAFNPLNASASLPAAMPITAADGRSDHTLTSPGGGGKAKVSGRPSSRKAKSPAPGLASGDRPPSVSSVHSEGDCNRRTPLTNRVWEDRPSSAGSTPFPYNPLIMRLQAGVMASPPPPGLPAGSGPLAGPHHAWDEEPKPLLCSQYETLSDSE
Histone deacetylase 9, sequence (Q9UKV0 whole entry): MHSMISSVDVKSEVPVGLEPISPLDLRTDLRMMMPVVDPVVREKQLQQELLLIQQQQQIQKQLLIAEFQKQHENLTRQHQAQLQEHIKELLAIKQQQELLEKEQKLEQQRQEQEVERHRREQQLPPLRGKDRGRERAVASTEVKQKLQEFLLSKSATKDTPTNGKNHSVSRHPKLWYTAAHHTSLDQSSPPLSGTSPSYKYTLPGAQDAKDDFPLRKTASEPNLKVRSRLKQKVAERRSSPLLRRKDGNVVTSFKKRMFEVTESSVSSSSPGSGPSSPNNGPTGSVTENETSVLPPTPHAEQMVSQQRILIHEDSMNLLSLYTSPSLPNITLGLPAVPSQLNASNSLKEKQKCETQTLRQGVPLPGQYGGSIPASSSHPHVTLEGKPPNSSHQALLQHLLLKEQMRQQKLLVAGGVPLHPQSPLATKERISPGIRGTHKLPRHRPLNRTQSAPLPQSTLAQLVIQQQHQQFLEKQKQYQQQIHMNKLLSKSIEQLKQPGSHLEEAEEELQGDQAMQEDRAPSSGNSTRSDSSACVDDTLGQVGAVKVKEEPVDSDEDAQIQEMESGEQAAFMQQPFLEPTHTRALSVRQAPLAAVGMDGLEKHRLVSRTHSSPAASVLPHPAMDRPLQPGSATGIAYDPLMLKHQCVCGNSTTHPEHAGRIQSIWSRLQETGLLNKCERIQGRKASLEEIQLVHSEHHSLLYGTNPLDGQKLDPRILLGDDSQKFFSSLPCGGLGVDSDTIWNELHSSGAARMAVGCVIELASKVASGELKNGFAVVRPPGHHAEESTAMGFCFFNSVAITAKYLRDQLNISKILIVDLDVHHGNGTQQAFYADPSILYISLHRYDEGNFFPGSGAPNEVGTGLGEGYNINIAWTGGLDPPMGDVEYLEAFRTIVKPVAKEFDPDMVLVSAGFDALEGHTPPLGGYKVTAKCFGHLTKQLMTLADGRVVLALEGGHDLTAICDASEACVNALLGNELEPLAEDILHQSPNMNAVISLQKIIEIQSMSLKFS

Consider `O=C(/C=C/c1ccc(CNCCCN2c3ccccc3CCc3ccc(Cl)cc32)cc1)NO`, for which the IC50 in series [1] was 2860 nM; against Histone deacetylase 9, “Not Active”; on Histone deacetylase 7, “Not Active”; in [3], 1270 nM. Besides, the area under the curve AUC(0-inf) in series [2] was 1850 ng·h/mL; in series [4], 166 ng·h/mL. In [5], the bioavailability came to 1.8%. For the same compound, the Activity in the series with SH-SY5Y amounted to 17.73%. In the series with Mus musculus [6], the Ratio turned out to be 0.896. Moreover, in the series with Mus musculus [7], the result was Active.
